From patent US8143257B2, “Substituted phenols as active agents inhibiting VEGF production” (PTC Therapeutics, Inc., priority 2004, dated 2012)
Where two headings read alike, the source gives them in different places.

Test system: hypoxia-inducible endogenous VEGF expression
Test: Assay to evaluate effect on hypoxia-inducible endogenous VEGF expression (VEGF ELISA, HeLa cells)
Assay type: cell-based
Conditions: read-out: ELISA EC50 (effective concentration required to lower the amount of VEGF translation by 50%)
Experimental: Assay to Evaluate Effect on Hypoxia-Inducible Endogenous VEGF Expression
The ability of the compounds of the invention to modulate hypoxia-inducible endogenous VEGF expression is analyzed as follows. VEGF protein levels are monitored by an ELISA assay (R&D Systems). Briefly, HeLa cells are cultured for 24-48 hours under hypoxic conditions (1% O2, 5% CO2, balanced with nitrogen) in the presence or absence of a compound of the invention. The conditioned media is then assayed by ELISA, and the concentration of VEGF is calculated from the standard ELISA curve of each assay.
A dose-response analysis is performed using the ELISA assay and conditions described above. A series of, e.g., seven different concentrations are analyzed. In parallel, a dose-response cytotoxicity assay is performed using Cell Titer Glo (Promega) under the same conditions as the ELISA to ensure that the inhibition of VEGF expression is not due to the cytotoxicity. Dose-response curves are plotted using percentage inhibition versus concentration of the compound, and EC50 and CC50 values are generated for each compound with the maximal inhibition set as 100% and the minimal inhibition as 0%.
The most preferred compounds of the invention are those with μM values of 3 or less.

[1] = Homo sapiens, HeLa cells cultured 24-48 hours under hypoxic conditions (1% O2, 5% CO2), VEGF in conditioned media by ELISA

Row | EC50 [1] [µM] | Compound | further results
1 | > 5 | CS(=O)(=O)Nc1c(OC(=O)N2CCC(C(O)(c3ccccc3)c3ccccc3)CC2)ccc2ccccc12 [4-(Hydroxy-diphenyl-methyl)-piperidine-1-carboxylic acid 1-methanesulfonylamino-naphthalen-2-yl ester] | 
2 | 0.22 | O=C(Nc1ccc2ccccc2c1Br)N1CCC(C(O)(c2ccccc2)c2ccccc2)CC1 [4-(Hydroxy-diphenyl-methyl)-piperidine-1-carboxylic acid (1-bromo-naphthalen-2-yl)-amide] | 
3 | 0.794 | O=C(Nc1ccc2ccccc2c1Cl)N1CCC(C(O)(c2ccccc2)c2ccccc2)CC1 [4-(Hydroxy-diphenyl-methyl)-piperidine-1-carboxylic acid (1-chloro-naphthalen-2-yl)-amide] | 
4 | 2.6 | CC(=O)c1c(OC(=O)N2CCC(Cc3ccccc3)CC2)ccc2ccccc12 [4-Benzyl-piperidine-1-carboxylic acid 1-acetyl-naphthalen-2-yl ester] | 
5 | 0.259 | O=C(Oc1ccc2ccccc2c1Br)N1CCC(Cc2ccccc2)CC1 [4-Benzyl-piperidine-1-carboxylic acid 1-bromo-naphthalen-2-yl ester] | 
6 | > 5 | CS(=O)(=O)Nc1c(OC(=O)N2CCC(Cc3ccccc3)CC2)ccc2ccccc12 [4-Benzyl-piperidine-1-carboxylic acid 1-methanesulfonylamino-naphthalen-2-yl ester] | 
7 | 7.09 | O=C(Oc1cc(Cl)c(Cl)cc1Cl)N1CCC(Cc2ccccc2)CC1 [4-Benzyl-piperidine-1-carboxylic acid 2,4,5-trichloro-phenyl ester] | 
8 | 3.72 | O=C(Oc1c(Cl)cc(Cl)cc1Cl)N1CCC(Cc2ccccc2)CC1 [4-Benzyl-piperidine-1-carboxylic acid 2,4,6-trichloro-phenyl ester] | 
9 | > 30 | Cc1ccc(OC(=O)N2CCC(Cc3ccccc3)CC2)c(Br)c1 [4-Benzyl-piperidine-1-carboxylic acid 2-bromo-4-methyl-phenyl ester] | 
10 | > 30 | O=C(Oc1ccccc1Br)N1CCC(Cc2ccccc2)CC1 [4-Benzyl-piperidine-1-carboxylic acid 2-bromo-phenyl ester] | 
11 | > 30 | Cc1ccc2cc(OC(=O)N3CCC(Cc4ccccc4)CC3)ccc2n1 [4-Benzyl-piperidine-1-carboxylic acid 2-methyl-quinolin-6-yl ester] | 
12 | > 10 | O=C(Nc1ccc2ccccc2c1Br)N1CCC(Cc2ccccc2)CC1 [4-Benzyl-piperidine-1-carboxylic acid (1-bromo-naphthalen-2-yl)-amide] | 
13 | > 10 | O=C(Nc1ccc2ccccc2c1Cl)N1CCC(Cc2ccccc2)CC1 [4-Benzyl-piperidine-1-carboxylic acid (1-chloro-naphthalen-2-yl)-amide] | 
14 | > 30 | O=C(Oc1cc2ccccc2cn1)N1CCC(Cc2ccccc2)CC1 [4-Benzyl-piperidine-1-carboxylic acid isoquinolin-3-yl ester] | 
15 | 4.39 | O=C(Nc1ccc2ccccc2c1)N1CCC(Cc2ccccc2)CC1 [4-Benzyl-piperidine-1-carboxylic acid naphthalen-2-ylamide] | 
16 |  | CC(=O)c1c(OC(=O)N2CCCN(C)CC2)ccc2ccccc12 [4-Methyl-[1,4]diazepane-1-carboxylic acid 1-acetyl-naphthalen-2-yl ester] | EC50 (Homo sapiens, HeLa): > 30 µM
17 |  | Cc1ccc(OC(=O)N2CCCN(C)CC2)c(Br)c1 [4-Methyl-[1,4]diazepane-1-carboxylic acid 2-bromo-4-methyl-phenyl ester] | EC50 (Homo sapiens, HeLa): > 30 µM
18 |  | CN1CCCN(C(=O)Oc2ccccc2Br)CC1 [4-Methyl-[1,4]diazepane-1-carboxylic acid 2-bromo-phenyl ester] | EC50 (Homo sapiens, HeLa): > 30 µM
19 |  | CN1CCN(C(=O)Oc2cc(Cl)c(Cl)cc2Cl)CC1 [4-Methyl-piperazine-1-carboxylic acid 2,4,5-trichloro-phenyl ester] | EC50 (Homo sapiens, HeLa): > 30 µM

Row | EC50 [1] [µM] | Compound | further results
20 |  | CN1CCN(C(=O)Oc2c(Cl)cc(Cl)cc2Cl)CC1 [4-Methyl-piperazine-1-carboxylic acid 2,4,6-trichloro-phenyl ester] | EC50 (Homo sapiens, HeLa): 14.2 µM
21 |  | Cc1ccc2cc(OC(=O)N3CCN(C)CC3)ccc2n1 [4-Methyl-piperazine-1-carboxylic acid 2-methyl-quinolin-6-yl ester] | EC50 (Homo sapiens, HeLa): > 30 µM
22 |  | CN1CCN(C(=O)Oc2ncc3ccccc3c2Cl)CC1 [4-Methyl-piperazine-1-carboxylic acid 4-chloro-isoquinolin-3-yl ester] | EC50 (Homo sapiens, HeLa): > 10 µM
23 |  | CN1CCN(C(=O)Oc2cc3ccccc3cn2)CC1 [4-Methyl-piperazine-1-carboxylic acid isoquinolin-3-yl ester] | EC50 (Homo sapiens, HeLa): > 30 µM
24 | 1.85 | CC(=O)c1c(OC(=O)N2CCC(C)CC2)ccc2ccccc12 [4-Methyl-piperidine-1-carboxylic acid 1-acetyl-naphthalen-2-yl ester] | 
25 | 0.469 | CC1CCN(C(=O)Oc2ccc3ccccc3c2Br)CC1 [4-Methyl-piperidine-1-carboxylic acid 1-bromo-naphthalen-2-yl ester] | 
26 | 16.2 | CC1CCN(C(=O)Oc2cc(Cl)c(Cl)cc2Cl)CC1 [4-Methyl-piperidine-1-carboxylic acid 2,4,5-trichloro-phenyl ester] | 
27 | > 30 | CC1CCN(C(=O)Oc2c(Cl)cc(Cl)cc2Cl)CC1 [4-Methyl-piperidine-1-carboxylic acid 2,4,6-trichloro-phenyl ester] | 
28 | > 30 | Cc1ccc(OC(=O)N2CCC(C)CC2)c(Br)c1 [4-Methyl-piperidine-1-carboxylic acid 2-bromo-4-methyl-phenyl ester] | 
29 |  | CC1CCN(C(=O)Oc2ccccc2Br)CC1 [4-Methyl-piperidine-1-carboxylic acid 2-bromo-phenyl ester] | EC50 (Homo sapiens, HeLa): > 30 µM
30 |  | Cc1ccc2cc(OC(=O)N3CCC(C)CC3)ccc2n1 [4-Methyl-piperidine-1-carboxylic acid 2-methyl-quinolin-6-yl ester] | EC50 (HeLa cells cultured 24-48 hours under hypoxic conditions (1% O2, 5% CO2), VEGF in conditioned media by ELISA): > 30 µM
31 | > 30 | CC1CCN(C(=O)Oc2cc3ccccc3cn2)CC1 [4-Methyl-piperidine-1-carboxylic acid isoquinolin-3-yl ester] | 
32 | > 10 | COc1ccc2ccc(OC(=O)N3CCN(c4ccccc4)CC3)c(Br)c2c1 [4-Phenyl-piperazine-1-carboxylic acid 1-bromo-7-methoxy-naphthalen-2-yl ester] | 
33 | > 5 | CS(=O)(=O)Nc1c(OC(=O)N2CCN(c3ccccc3)CC2)ccc2ccccc12 [4-Phenyl-piperazine-1-carboxylic acid 1-methanesulfonylamino-naphthalen-2-yl ester] | 
34 | > 30 | O=C(Oc1cc(Cl)c(Cl)cc1Cl)N1CCN(c2ccccc2)CC1 [4-Phenyl-piperazine-1-carboxylic acid 2,4,5-trichloro-phenyl ester] | 
35 | 5.78 | O=C(Oc1c(Cl)cc(Cl)cc1Cl)N1CCN(c2ccccc2)CC1 [4-Phenyl-piperazine-1-carboxylic acid 2,4,6-trichloro-phenyl ester] | 
36 | > 30 | Cc1ccc2cc(OC(=O)N3CCN(c4ccccc4)CC3)ccc2n1 [4-Phenyl-piperazine-1-carboxylic acid 2-methyl-quionolin-6-yl ester] | 
37 | > 10 | O=C(Nc1ccc2ccccc2c1Br)N1CCN(c2ccccc2)CC1 [4-Phenyl-piperazine-1-carboxylic acid (1-bromo-naphthalen-2-yl)-amide] | 
38 | > 10 | O=C(Nc1ccc2ccccc2c1Cl)N1CCN(c2ccccc2)CC1 [4-Phenyl-piperazine-1-carboxylic acid (1-chloro-naphthalen-2-yl)-amide] | 
